Calls of active or inactive are those of the source. No cut-off for these calls is given here.
Columns and labels:
[1] = Antiviral activity against Respiratory syncytial virus long A infected in human Hep2 cells assessed as reduction in virus-induced cytopathic effect measured after 6 days by CCK8 assay; type: functional, cell-based, Respiratory syncytial virus type A; conditions: HEp-2, 144 h
[2] = Cytotoxicity against human Hep2 cells measured after 6 days by CCK8 assay; type: cell-based, HEp-2
[3] = test system: Respiratory syncytial virus; assay: Inhibition of Respiratory syncytial virus long A fusion protein expressed in expressed in human Flp-In T-REx-293 cells assessed as inhibition of cell-cell fusion at 1 to 100 nM measured after 3 days by microscopic analysis; type: cell-based
[4] = Intrinsic clearance in human liver microsomes; type: ADME; conditions: read-out: CLH
[5] = Intrinsic clearance in rat liver microsomes; type: ADME; conditions: read-out: CLH
[6] = Clearance in Wistar rat at […], iv by LC-MS/MS analysis; type: ADME, organism-based; conditions: in vivo
[7] = Volume of distribution at steady state in Wistar rat at […], iv by LC-MS/MS analysis; type: ADME, organism-based; conditions: in vivo, read-out: Vdss
[8] = Half life in Wistar rat at […], iv by LC-MS/MS analysis; type: ADME, organism-based; conditions: in vivo
[9] = Oral availability in Wistar rat at […] by LC-MS/MS analysis; type: ADME, organism-based; conditions: in vivo
[10] = Solubility of the compound by LYSA; type: physicochemical
[11] = Permeability of the compound by PAMPA assay; type: ADME; conditions: read-out: permeability
[12] = test system: Respiratory syncytial virus; assay: Antiviral activity against Respiratory syncytial virus long A infected in human Hep2 cells assessed as inhibition of viral replication measured after 3 days by plaque reduction assay; type: functional, organism-based; conditions: HEp-2, 72 h
[13] = test system: Respiratory syncytial virus; assay: Inhibition of Respiratory syncytial virus long A fusion protein expressed in human Flp-In T-REx-293 cells assessed as inhibition of cell-cell fusion at 0.1 to 100 nM measured after 3 days by microscopic analysis; type: cell-based

| Structure (SMILES) | EC50 [1] | CC50 at 144 h [2] | other results |
| --- | --- | --- | --- |
| COc1ccccc1CC(=O)N1CCN(c2cc(NCCN)c3ccccc3n2)CC1 | 56 nM | > 100000 nM | – |
| NCCNc1cc(N2CCN(C(=O)Cc3ccc(F)cc3)CC2)nc2ccccc12 | 95 nM | > 100000 nM | – |
| CC(C)CC(=O)N1CCN(c2cc(NCCN)c3ccccc3n2)CC1 | 1880 nM | > 100000 nM | – |
| NCCNc1cc(N2CCN(c3ccc(Cl)cc3)CC2)nc2ccccc12 | > 100000 nM | 6600 nM | – |
| CNCCNc1cc(N2CCN(C(=O)C(C)(C)c3ccccc3)CC2)nc2ccccc12 | 33 nM | > 100000 nM | inhibition [3]: Active; CLint scaled [4]: 5.7 mL/min/kg; CLint scaled [5]: 18 mL/min/kg; clearance [6]: 143 mL/min/kg; Vd [7]: 67.9 L/kg; half-life [8]: 7.3 h; bioavailability [9]: 41%; solubility [10]: > 400 µg/mL; Papp [11]: 1.37 ×10⁻⁶ cm/s |
| CS(=O)(=O)N1CCN(c2cc(NCCN)c3ccccc3n2)CC1 | 2270 nM | > 100000 nM | – |
| CCC(CC)(C(=O)N1CCN(c2cc(NCCN)c3ccccc3n2)CC1)c1ccccc1 | 624 nM | > 100000 nM | – |
| NCC(O)CNc1cc(N2CCC(c3ccccc3)CC2)nc2ccccc12 (stereo unspecified) | 759 nM | 20800 nM | – |
| NCCNc1cc(N2CCN(C(=O)Cc3ccccc3Cl)CC2)nc2ccccc12 | 77 nM | > 100000 nM | – |
| N#Cc1cccc(CC(=O)N2CCN(c3cc(NCCN)c4ccccc4n3)CC2)c1 | 225 nM | > 100000 nM | – |
| CCC(C(=O)N1CCN(c2cc(NCCN)c3ccccc3n2)CC1)c1ccccc1 (stereo unspecified) | 556 nM | > 100000 nM | – |
| CC(C)(C(=O)N1CCN(c2cc(NCCN)c3cc(Cl)ccc3n2)CC1)c1ccccc1 | 99 nM | 20800 nM | – |
| CC(C)(C(=O)N1CCN(c2cc(NCCN)c3ccc(Cl)cc3n2)CC1)c1ccccc1 | 2190 nM | 20900 nM | – |
| NCCNc1cc(N2CCN(C(=O)Cc3ccc(Cl)cc3)CC2)nc2ccccc12 | 58 nM | > 100000 nM | – |
| NCCNc1cc(N2CCN(C(=O)Cc3ccc(F)c(F)c3)CC2)nc2ccccc12 | 255 nM | > 100000 nM | – |
| NCCNc1cc(N2CCN(C(=O)C3CCCCC3)CC2)nc2ccccc12 | 9240 nM | > 100000 nM | – |
| CC(C)(C(=O)N1CCN(c2cc(NCCN)c3ccccc3n2)CC1)c1ccccc1 | 28 nM | > 100000 nM | EC50 [12]: < 100 nM; inhibition [13]: Active; CLint scaled [4]: 8.4 mL/min/kg; CLint scaled [5]: 16.6 mL/min/kg; clearance [6]: 222 mL/min/kg; Vd [7]: 36.9 L/kg; half-life [8]: 3 h; bioavailability [9]: 57%; solubility [10]: > 400 µg/mL; Papp [11]: 0.74 ×10⁻⁶ cm/s |
| CC(C)(C(=O)N1CCN(c2cc(NCCN)c3c(Cl)cccc3n2)CC1)c1ccccc1 | 7960 nM | 20800 nM | – |
| NCCNc1cc(N2CCN(C(=O)C3(c4ccccc4)CC3)CC2)nc2ccccc12 | 17 nM | > 100000 nM | – |
| NCCNc1cc(N2CCN(S(=O)(=O)c3ccccc3)CC2)nc2ccccc12 | 1170 nM | 20500 nM | – |
| NCCNc1cc(N2CCN(c3ccccc3Cl)CC2)nc2ccccc12 | 2010 nM | 20800 nM | – |
| NCCNc1cc(N2CCN(c3ccccc3)CC2)nc2ccccc12 | 865 nM | 20800 nM | – |
| Cc1ccccc1CC(=O)N1CCN(c2cc(NCCN)c3ccccc3n2)CC1 | 29 nM | > 100000 nM | – |

| Structure (SMILES) | EC50 [1] | CC50 at 144 h [2] | other results |
| --- | --- | --- | --- |
| NCCNc1cc(N2CCN(C(=O)Cc3ccccc3)CC2)nc2ccccc12 | 79 nM | > 100000 nM | – |
| Cc1ccc(CC(=O)N2CCN(c3cc(NCCN)c4ccccc4n3)CC2)cc1 | 142 nM | > 100000 nM | – |
| CC(=O)N1CCN(c2cc(NCCN)c3ccccc3n2)CC1 | 317 nM | > 100000 nM | – |
| COc1cccc(CC(=O)N2CCN(c3cc(NCCN)c4ccccc4n3)CC2)c1 | 98 nM | > 100000 nM | – |
| CN(C)CCNc1cc(N2CCN(C(=O)C(C)(C)c3ccccc3)CC2)nc2ccccc12 | 929 nM | 55200 nM | – |
| NCCNc1cc(N2CCN(C(=O)Cc3cccc(Cl)c3)CC2)nc2ccccc12 | 66 nM | > 100000 nM | – |
| COc1ccc(CC(=O)N2CCN(c3cc(NCCN)c4ccccc4n3)CC2)cc1 | 679 nM | > 100000 nM | – |
| NCCNc1cc(N2CCN(c3cccc(Cl)c3)CC2)nc2ccccc12 | 977 nM | 6400 nM | – |
| NCCNc1cc(N2CCN(C(=O)Cc3ccc(Cl)c(Cl)c3)CC2)nc2ccccc12 | 220 nM | 6680 nM | – |
| CC(C(=O)N1CCN(c2cc(NCCN)c3ccccc3n2)CC1)c1ccccc1 (stereo unspecified) | 91 nM | > 100000 nM | – |
| NCCNc1cc(N2CCN(C(=O)CCc3ccccc3)CC2)nc2ccccc12 | 464 nM | > 100000 nM | – |
| Cc1cccc(CC(=O)N2CCN(c3cc(NCCN)c4ccccc4n3)CC2)c1 | 59 nM | > 100000 nM | – |
| NCCNc1cc(N2CCN(C(=O)Cc3ccccc3F)CC2)nc2ccccc12 | 89 nM | > 100000 nM | – |
| CC(=O)NCCNc1cc(N2CCN(C(=O)C(C)(C)c3ccccc3)CC2)nc2ccccc12 | 15600 nM | > 100000 nM | – |
| NCCNc1cc(N2CCN(C(=O)C3(c4ccccc4)CCCC3)CC2)nc2ccccc12 | 3820 nM | > 100000 nM | – |
| NCCNc1cc(N2CCN(C(=O)C3(c4ccccc4)CCC3)CC2)nc2ccccc12 | 86 nM | > 100000 nM | – |
| NCCNc1cc(N2CCN(C(=O)Cc3cccc(F)c3)CC2)nc2ccccc12 | 80 nM | > 100000 nM | – |
| NCCNc1cc(N2CCN(C(=O)Cc3cc(F)cc(F)c3)CC2)nc2ccccc12 | 264 nM | > 100000 nM | – |
| NCCNc1cc(N2CCN(C(=O)Cc3cccc(C(F)(F)F)c3)CC2)nc2ccccc12 | 563 nM | > 100000 nM | – |
| NCCNc1cc(N2CCN(C(=O)c3ccccc3)CC2)nc2ccccc12 | 570 nM | > 100000 nM | – |
| CCC(=O)N1CCN(c2cc(NCCN)c3ccccc3n2)CC1 | 3090 nM | > 100000 nM | – |
| CC(C)(C(=O)N1CCN(c2cc(NCCO)c3ccccc3n2)CC1)c1ccccc1 | 322 nM | > 100000 nM | – |
| CC(C)C(=O)N1CCN(c2cc(NCCN)c3ccccc3n2)CC1 | 847 nM | > 100000 nM | – |

— ChEMBL document CHEMBL3826939, “Discovery of Piperazinylquinoline Derivatives as Novel Respiratory Syncytial Virus Fusion Inhibitors” (ACS Med Chem Lett, 2016)
